“And” between values parts separate entries of the source, which are not always exact repeats. Identical values can stand only once. The source made the active and inactive calls. No rule for the calls is given here.

This test in a line: non-covalent RecA intein splicing inhibitors, dose response, biochemical, cell-free, fluorescence, secondary screen (AID 449750).
In the case of `COc1cc(/C=C2\C(=O)N(c3ccc(NC(C)=O)cc3)N=C2c2ccccc2)ccc1O`, the AC50 was > 38 µM (inactive).

As to `CC(C)[n+]1ccn(C2=C([O-])c3ccccc3C(=O)/C2=N\S(=O)(=O)c2ccccc2)c1`, the AC50 was 8.08 µM.

As for `Cc1ccc(N(CCC#N)C(=O)CCl)cc1C`, the AC50 is 11.5 µM.

Take `O=c1[nH]c(Nc2ccccn2)cc2ccccc12`: the AC50 is > 38 µM (inactive).

Take `O=C(Nc1ccc(N2CCOCC2)cc1)Nc1ccc2nsnc2c1`: the AC50 was > 38 µM (inactive).

For the compound `C=C(C)CNC(=S)N=Nc1c(O)[nH]c2ccc([N+](=O)[O-])cc12`, the AC50 was > 38 µM (inactive).

With `CC(=O)NC1C(=O)N(CCN2CCOCC2)c2ccc(Br)cc21` (stereo not given), the AC50 was 18.1 µM.

On to `CCOc1cc(/C=C2\C(=N)N3N=C(N4CCCCC4)SC3=NC2=O)ccc1OC(=O)c1ccco1`, for which the AC50 was > 38 µM (inactive).

In the case of `CC(=O)c1c(Cl)nc2cccc3c2c1-c1ccccc1C3=O`, the AC50 was > 38 µM (inactive).

Consider `O=C(/C=C/c1ccc(O)cc1)c1ccc(NC2=C(N3CCCCC3)C(=O)c3ccccc3C2=O)cc1`, for which the AC50 was 2.06 µM.

`CC(=O)NC1C(=O)N(CCN2CCOCC2)c2ccc(Cl)cc21` (stereo not given): the AC50 is 34.1 µM.

As to `O=C1/C(=C\c2cccc(O)c2O)SC(=S)N1Cc1ccccc1`, the AC50 is > 38 µM (inactive).

Turning to `COc1cccc(C(c2c(C)[nH]n(-c3ccccc3)c2=O)c2c(C)[nH]n(-c3ccccc3)c2=O)c1OC`, the AC50 is 2.19 µM.

On to `CCN(CCN(C)C)C(=O)c1ccc2c(c1NCCO)C(=O)c1ccccc1C2=O`, for which the AC50 is > 38 µM (inactive).

Regarding `CCCCCCCCCCOC(=O)Cn1c(COc2ccccc2C)[n+](C)c2ccccc21`, the AC50 was 6.93 µM.

For the compound `Cc1cccc(N2C(=O)C(Cl)=C(N3CCOCC3)C2=O)c1`, the AC50 was > 38 µM (inactive).

For `CCOC(=O)c1c(OCC)[nH]c2c1cc(O)c1ccccc12`, the AC50 was 32.1 µM.

Turning to `CC(=O)NC1N=C(C)N(c2ccccc2)C1=O` (stereo not given), the AC50 is 33.7 µM.

Regarding `O=C(NC(NC(=S)Nc1ccc(Cl)cc1Cl)C(Cl)(Cl)Cl)c1cccc([N+](=O)[O-])c1` (stereo not given), the AC50 is 2.62 µM.

`CNCC(O)CN(c1ccccc1)c1ccccc1` (stereo not given): the AC50 was 10.5 µM.

With `COCCOC(=O)C1=C(C)N=C2SCCC(=O)N2C1c1ccc(OC(=O)c2ccco2)cc1` (stereo not given), the AC50 is > 38 µM (inactive).

As for `Cc1[nH]nc2c1C(c1ccc(-c3ccc(Cl)cc3)o1)C(C#N)=C(N)O2` (stereo not given), the AC50 was 39.1 µM.

On to `Cc1[nH][nH]c(=O)c1C(c1ccccc1[N+](=O)[O-])C(C#N)C#N` (stereo not given), for which the AC50 was > 38 µM (inactive).

With `[O-]C1=N/[N+](=C/c2ccc(Cl)cc2)CC1`, the AC50 is > 38 µM (inactive).

As for `CC(/C=N/NC(=O)Cc1cc(=O)[nH][nH]1)=C\c1ccccc1`, the AC50 was 27 µM.

For `CCN(CC)c1ccc(/C=C2\C(=O)N(c3nnc(C)c(=O)[nH]3)N=C2C)cc1`, the AC50 was 5.67 µM.

In the case of `Cc1cccc(N(Cc2ccccc2)C(=O)CCl)c1`, the AC50 was 2.06 µM.

Regarding `COC(CN(C(=O)CCl)C(C(=O)NC1CCCCC1)c1ccc(C)cc1)OC` (stereo not given), the AC50 was 17.9 µM.

As to `N#CC1=C(N)C(C#N)(C#N)[C@H](c2c(F)cccc2F)[C@H]2CC3(CC=C12)OCCO3`, the AC50 is > 38 µM (inactive).

As to `CC(=O)Oc1ccc2c(=O)oc(-c3ccccc3C)nc2c1`, the AC50 is > 38 µM (inactive).

`Cc1cc2nc(Sc3c([N+](=O)[O-])nc(C)n3Cc3ccccc3)[nH]c2cc1C`: the AC50 was > 38 µM (inactive).

With `COc1cc(C(c2c(C)[nH][nH]c2=O)c2c(C)[nH][nH]c2=O)ccc1OC(C)C`, the AC50 was 12 µM.

Take `Cc1ccc(C(=O)C2C(c3ccc(-c4ccccc4[N+](=O)[O-])o3)NC(=O)NC2(O)C(F)(F)F)cc1` (stereo not given): the AC50 is 19.9 µM.

`CCOc1ccccc1Oc1coc2cc(OC(=O)c3ccco3)ccc2c1=O`: the AC50 is > 38 µM (inactive).

For the compound `O=C1C2=C(c3ccccc31)[N+](=O)C1CCCCC1N2[O-]` (stereo not given), the AC50 is 18.3 µM.

`CCOc1ccc(N2C(=O)/C(=C\c3ccc(O)c(OC)c3)S(=O)(=O)C2c2cccc([N+](=O)[O-])c2)cc1` (stereo not given): the AC50 was > 38 µM (inactive).

`C/C(CC(=O)Nc1ccccn1)=N\NC(=O)Cc1cccc2ccccc12`: the AC50 was 25.6 µM.

Regarding `CC1=NNC(=O)C1C(c1cccc(O)c1)C(C#N)C#N` (stereo not given), the AC50 is > 38 µM (inactive).

Take `COc1cccc(-c2[nH]nc3c2C(c2ccc(C)o2)C(C#N)=C(N)O3)c1` (stereo not given): the AC50 is 26.2 µM.

For `CC(C)C(=O)N1CCN(c2nc(-c3ccccc3)c3c(c2C#N)CCCC3)CC1`, the AC50 is 9.83 µM.

As for `COc1ccc(C2C(O)C(c3c[nH]c4ccccc34)=NN2C(=O)CCl)cc1` (stereo not given), the AC50 was 1.22 µM.

`COc1ccc(CN2CCNC(=O)C2CC(=O)N(C)Cc2ccncn2)c(OC)c1` (stereo not given): the AC50 is > 38 µM (inactive).

Turning to `CCOC(=O)Cc1[nH]nc2c1C(c1ccsc1)C(C#N)=C(N)O2` (stereo not given), the AC50 was > 38 µM (inactive).

For the compound `COc1ccccc1/C=C1/C(=O)N(c2ccccc2)N=C1C`, the AC50 was > 38 µM (inactive).

With `O=[N+]([O-])c1cc(S(=O)(=O)C(F)(F)F)ccc1Sc1nc2ccccc2[nH]1`, the AC50 was 16 µM.

Regarding `O=C(CCl)Nc1cn(-c2ccccc2)nc1-c1ccccc1`, the AC50 is 7.77 µM.

As to `CCOC(=O)c1c(C)[nH]c2c1-c1ccccc1C(=O)C2=O`, the AC50 was 5.39 µM.

On to `CCCCCCCCCCOC(=O)Cn1c(COc2ccccc2OC)[n+](C)c2ccccc21`, for which the AC50 is 7.46 µM.

For `O=C(O)CSc1c2c(nc3cc(C(=O)Nc4cccc(C(F)(F)F)c4)ccc13)CCCC2`, the AC50 is 21.7 µM.

Regarding `CC(C)(C)OC(=O)N1CC=C2C(C#N)=C(N)C(C#N)(C#N)C(c3cccs3)C2C1` (stereo not given), the AC50 is > 12 µM (inactive).

In the case of `CCC(=O)Nc1c(C)nn(C(=O)CC)c1C`, the AC50 is > 38 µM (inactive).

For `Cn1cnc([N+](=O)[O-])c1Sc1ccc(C(C)(C)C)cc1`, the AC50 was > 38 µM (inactive).

In the case of `COc1ccccc1/C=C/C1(C(=O)NC2CCCC2)CC(=O)N1c1ccc(C)cc1` (stereo not given), the AC50 is 13.3 µM.

As to `O=C1NC(c2ccc(-c3ccccc3[N+](=O)[O-])o2)C(C(=O)c2ccc(F)cc2)C(O)(C(F)(F)F)N1` (stereo not given), the AC50 is 34.4 µM.

Take `CCOC1=C/C(=C/c2c(N)n3oc(C)cc3nc2=O)C=CC1=O`: the AC50 was > 38 µM (inactive).

As to `CN(N)C(=S)Nc1ccc(Cl)cc1`, the AC50 was > 38 µM (inactive).

Take `O=C(CCl)Nc1cc(-c2ccccc2)nn1-c1ccccc1`: the AC50 is 9.05 µM.

Consider `Cc1[nH][nH]c(=O)c1C(c1c(C)[nH][nH]c1=O)c1cn(Cc2ccccc2Cl)c2ccccc12`, for which the AC50 was 1.68 µM.

As for `COc1ccc(C(N)c2nccc3cc(OC)c(OC)cc23)cc1OC` (stereo not given), the AC50 is > 38 µM (inactive).

As for `Cc1nc(COC(=O)c2cc(O)c3ccccc3c2O)cs1`, the AC50 was 15.1 µM.

In the case of `Clc1ccc(CSC(Cn2ccnc2)c2ccc(Cl)cc2Cl)cc1` (stereo not given), the AC50 was 8.47 µM.

`N=c1c2c(-c3ccccc3)c(-c3ccccc3)n(Cc3ccco3)c2ncn1Cc1ccccc1`: the AC50 is 5.8 µM.

Take `O=C(Cc1ccccc1Cl)NC1(O)C(=O)c2ccccc2C1=O`: the AC50 was 7.63 µM.

`CCCCCc1cc(=O)oc2c(C(CCN3CCCC(C)C3)c3ccc(OC)cc3)c(OC)cc(OC)c12` (stereo not given): the AC50 was 10.1 µM.

Turning to `CCOc1cc(NC2CS(=O)(=O)CC2O)c(OCC)cc1NC(=O)c1ccccc1` (stereo not given), the AC50 was > 38 µM (inactive).

On to `CC1=NN(CCC#N)C(=O)/C1=C/c1ccc(N(C)C)cc1`, for which the AC50 was 22.4 µM.

As to `CC1=NN(c2ccc(C)cc2C)C(=O)C1C(c1cccc(O)c1)C1C(=O)N(c2ccc(C)cc2C)N=C1C` (stereo not given), the AC50 was 3.51 µM.

For the compound `Cc1ccc(NC(=O)CCl)cc1S(=O)(=O)N1CCCCCC1`, the AC50 is 10 µM.

On to `COc1ccc(S(=O)(=O)Nc2cc(SCC(=O)O)c(O)c3ccccc23)cc1`, for which the AC50 is 2.14 µM.

With `Cc1ccc(C(C[N+](=O)[O-])c2c(C)[nH]n(-c3ccccc3)c2=O)cc1` (stereo not given), the AC50 is 5.5 µM.

Turning to `CCCCCc1cc(=O)oc2c(C(CCN3CCCC(C)C3)c3ccc4c(c3)OCO4)c(OC)cc(OC)c12` (stereo not given), the AC50 is 10.5 µM.

In the case of `Cc1ccc(S(=O)(=O)/N=C2\C=C(Nc3cccc(C(=O)O)c3)C(=O)c3ccccc32)cc1`, the concentration at half-maximal activity (AC50) is 0.412 µM.

Regarding `COc1ccc(-c2csc(Nc3ccc(O)cc3)n2)cc1`, the AC50 was > 38 µM (inactive).

On to `CCCCCCCCCCOC(=O)Cn1c(COc2ccc(OC)cc2)[n+](C)c2ccccc21`, for which the AC50 was 8.31 µM and 8.42 µM.

Regarding `CCCC1C(C#N)=C(N)Oc2n[nH]c(C(C)(C)C)c21` (stereo not given), the AC50 is 1.7 µM.

For the compound `OCC[n+]1c2ccccc2nc2ccc(N3CCOCC3)cc21`, the AC50 is 26.5 µM.

Take `O=S(=O)(Nc1cc2nc3ccccc3nc2n1Cc1ccccc1)c1ccc(Cl)cc1`: the AC50 is 5.18 µM.

Take `COc1ccc(Nc2ccc3c(c2)=NC2(CCCCC2)[N+]=3[O-])cc1`: the AC50 is 15 µM.

For the compound `CCc1[nH]nc2c1C(c1ccc(C)o1)C(C#N)=C(N)O2` (stereo not given), the AC50 was > 38 µM (inactive).

Take `COc1ccc(N(C(=O)CCl)C(C(=O)NCCc2ccccc2)c2cccs2)cc1` (stereo not given): the AC50 is 0.958 µM.

Consider `CC(C)(C)NC(=O)C(c1ccc(Cl)cc1)N(Cc1ccco1)C(=O)CCl` (stereo not given), for which the AC50 was 11.6 µM.

`O=C(NCc1ccc2c(c1)OCO2)c1nc(S(=O)(=O)Cc2ccccc2F)ncc1Cl`: the AC50 is > 38 µM (inactive).

For `CC1=NN(c2ccccc2)C(=O)/C1=C\c1cn(C)c2ccccc12`, the AC50 was > 38 µM (inactive).

On to `CC(C)CCn1c(N)c(C(=O)NCc2cccs2)c2nc3ccccc3nc21`, for which the AC50 is > 38 µM (inactive).

Take `O=C(CCN1C(=O)/C(=C/c2cccs2)SC1=S)Nc1cccc(O)c1`: the AC50 was > 38 µM (inactive).

Turning to `Cc1ccc2c(c1)c1nnc(SCC(=O)Nc3ccc(N(C)C)cc3)nc1n2CC(=O)O`, the AC50 was > 38 µM (inactive).

Take `COc1cc(C(c2c(C)[nH][nH]c2=O)c2c(C)[nH][nH]c2=O)ccc1OS(=O)(=O)c1ccc(C)cc1`: the AC50 is 8.13 µM.

Consider `O=S(=O)(Nc1ccc(-n2cnnn2)cc1)c1ccc(F)c(F)c1F`, for which the AC50 was > 38 µM (inactive).

On to `N#CC1=C(N)Oc2n[nH]c(-c3cccs3)c2C1c1cccs1` (stereo not given), for which the AC50 is 9.22 µM.

`CCOC(=O)/C(C#N)=C1/SC(C)C(=O)N1c1ccc(Br)cc1` (stereo not given): the AC50 was > 38 µM (inactive).
